Data taken from paper PMC11311998, “AR71, Histamine H3 Receptor Ligand—In Vitro and In Vivo Evaluation (Anti-Inflammatory Activity, Metabolic Stability, Toxicity, and Analgesic Action)” (International Journal of Molecular Sciences, 2024).

What was measured:
[1] = system: BV-2 cells; assay: cytokine/chemokine panel in LPS-stimulated microglia (Luminex); assay type: cell-based, mouse
Description: In the research presented in this paper, we extended the study of the anti-inflammatory properties of AR71 by analysing the panel of cytokines/chemokines in mouse microglia with the Luminex® platform. We applied MILLIPLEX® Magnetic Bead Panel that consists of nine different analytes regarding inflammation. Some of the analytes were below the limit of quantification, and the reason for this is explained in the text.
BV-2 cells (the murine microglial cell line) were purchased from the Interlab Cell Line Collection (ICLC) cell bank (ICLC, Genova, Italy). The cells were cultured in DMEM medium (Gibco no. 61965-026, ThermoFisher Scientific, Waltham, MA, USA) containing 10% charcoal-stripped foetal bovine serum (CS-FBS, Biowest no. S181f, batch no. S00NP) in a humidified incubator containing 95% air and 5% CO2 at 37 °C. CS-FBS was used to study the effect of compounds on neuroinflammation in vitro without the confounding effects of some cytokines that are naturally present in serum. Experiments were carried out with BV-2 cells from passages 7 to 13.
The Luminex assay is a form of immunoassay that utilises magnetic microparticles and the same sandwiching techniques as ELISAs. To analyse the panel of cytokines/chemokines in mouse microglia, we used a MILLIPLEX® Magnetic Bead Panel (MCYTOMAG-70K, Millipore, Sigma-Aldrich, Darmstadt, Germany). The following analytes were studied: IFN-γ, IL-1β, IL-4, IL-6, IL-10, IL-12 (p40), IP-10, MIP-2, and TNF-α. The preparation of antibody-immobilised beads, quality controls, mouse cytokine standard, and immunoassay procedure, were performed according to the manufacturer’s protocol. All standards, quality controls, and samples were analysed in duplicate on the Luminex 200 multiplexing instrument (Luminex Corp, Austin, TX, USA). Sample analyte concentrations were determined using Belysa 1.1.0 curve-fitting software and the standard curve data from each run (Millipore, Sigma-Aldrich, Darmstadt, Germany). To perform multiplex cytokine analysis, BV-2 cells (150 × 10^3 cells/well/500 μL in 24-well plate) were pre-treated for 1 h with AR71, and then LPS (1 μg/mL) was added to induce inflammation. The cells were cultured for another 24 h. After this time, cell culture supernatants were collected, centrifuged to remove cell debris, and stored at −80 °C for analysis. To avoid multiple freeze/thaw cycles, the samples were aliquoted.

[2] = system: CCI-exposed mice; assay: cold plate test in CCI neuropathic pain model; assay type: in vivo, mouse
Procedure: The effects of a single intraperitoneal (i.p.) injection of AR71 at doses of 5, 10, and 20 mg/kg on mechanical (von Frey test) and thermal (cold plate and tail flick tests) stimulus were evaluated on day 14 following sciatic nerve injury (Figure 15). There were seven to eight animals per group. All these tests were performed in three time series after the administration of the compound. In the case of the von Frey test—after 30, 90, and 180 min; the cold plate test—after 35, 95, and 185 min; and the tail flick test—after 40, 100, and 190 min.
The mice were randomly divided into four experimental groups. […] All data from behavioural tests were analysed using a one-way ANOVA with Bonferroni’s multiple comparison post hoc test. […]
The cold plate test (performed by the Cold/Hot Plate Analgesia Meter, Columbus Instruments, N. Hague Ave, Columbus, OH, USA) was used to assess sensitivity to noxious thermal stimuli. […] The mice were placed on a cold plate, and the time it took to lift the injured paw was recorded.

[3] = 1 h pre-treatment, LPS 1 μg/mL, 24 h

## COc1cc(/C=C/C(=O)c2ccc(OCCCN3CCCCC3)cc2)cc(OC)c1OC [AR71, (E)-3-(3,4,5-trimethoxyphenyl)-1-(4-(3-(piperidin-1-yl)propoxy)phenyl)prop-2-en-1-one]
[1]; [3]
  reduction of IL-1β vs level after LPS stimulation: 2.66 times lower
  reduction of IL-6 vs level after LPS stimulation: 5.94 times lower
  reduction of TNF-α vs level after LPS stimulation: 1.77 times lower
[1]; in the presence of LPS
  effect on CXCL-10 (IP-10): repressed
[1]; with LPS
  IL-4 level in the presence of LPS: did not restore the level of IL-4 to the control point
[1]; without LPS, vs unstimulated BV-2 cells
  IL-4 level, compound alone: half the IL-4 content
[2]; 5, 10 and 20 mg/kg i.p., 35 min (5 mg/kg p < 0.05; 10 and 20 mg/kg p < 0.001)
  effect in cold plate test vs control: Analgesic effects
[2]; 95 and 185 min after injection, 10 and 20 mg/kg i.p.
  effect in cold plate test vs control: only the two higher doses were effective
